Holding throughout (type): functional
One experiment concerns the target T1, Caspase-3 (Homo sapiens, UniProt P42574).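 Also: Dose-response selectivity test against caspase-3 for candidate inhibitors of sentrin-specific proteases (SENPs).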
T1 sequence (P42574 whole entry): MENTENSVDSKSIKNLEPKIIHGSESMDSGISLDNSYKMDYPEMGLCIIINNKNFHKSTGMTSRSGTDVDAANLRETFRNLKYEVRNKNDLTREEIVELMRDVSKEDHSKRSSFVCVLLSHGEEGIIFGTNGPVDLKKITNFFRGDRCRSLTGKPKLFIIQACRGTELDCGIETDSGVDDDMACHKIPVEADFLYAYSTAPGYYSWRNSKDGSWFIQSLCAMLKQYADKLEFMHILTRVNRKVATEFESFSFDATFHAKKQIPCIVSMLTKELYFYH

Experiment [1] addresses T2, Orexin/Hypocretin receptor type 1 (Homo sapiens, UniProt O43613).
T2 sequence (O43613 whole entry): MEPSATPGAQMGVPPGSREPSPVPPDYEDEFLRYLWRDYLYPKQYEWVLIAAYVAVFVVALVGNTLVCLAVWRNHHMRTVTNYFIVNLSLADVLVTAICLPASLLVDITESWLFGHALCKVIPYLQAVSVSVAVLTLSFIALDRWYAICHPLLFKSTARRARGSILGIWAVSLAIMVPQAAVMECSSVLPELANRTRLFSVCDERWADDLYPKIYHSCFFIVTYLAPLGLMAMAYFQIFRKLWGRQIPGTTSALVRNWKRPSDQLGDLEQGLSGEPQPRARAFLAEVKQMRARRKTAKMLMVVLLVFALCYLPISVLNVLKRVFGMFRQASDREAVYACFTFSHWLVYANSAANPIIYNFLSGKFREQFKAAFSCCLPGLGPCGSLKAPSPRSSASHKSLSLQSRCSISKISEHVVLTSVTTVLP
Kind of experiment: Fluorescence-based cell-based high throughput dose response assay for antagonists of the orexin 1 receptor (OX1R; HCRTR1). [Related pubchem assays (depositor defined):AID434989, AID435008, AID463079, AID485270, AID492963, AID492964, AID492965, AID493232, AID504717, AID504718].

The target in experiment [2] is T2, Orexin/Hypocretin receptor type 1. The experiment is described as follows: Homogeneous Time Resolved Fluorescence (HTRF)-based cell-based high throughput dose response assay for antagonists of the orexin 1 receptor (OX1R; HCRTR1). [Related pubchem assays (depositor defined):AID434989, AID435008, AID463079, AID485270, AID492963, AID492964, AID492965, AID493232, AID504717, AID504718].

Experiment [3] can be described thus: Counterscreen for antagonists of the orexin 1 receptor (OX1R; HCRTR1): Fluorescence-based cell-based high throughput dose response assay to identify antagonists of the parental CHO cell line. [Related pubchem assays (depositor defined):AID434989, AID435008, AID463079, AID485270, AID492963, AID492964, AID492965, AID493232, AID504699, AID504701]. (A counterscreen serves to expose hits that act by an unwanted route or on another target.)

The next experiment concerns CHO-K1. Kind of experiment: Counterscreen for antagonists of the orexin 1 receptor (OX1R; HCRTR1): Homogeneous time resolved fluorescence (HTRF)-based cell-based dose response assay to identify antagonists of the parental CHO-K1 cell line. [Related pubchem assays (depositor defined):AID434989, AID435008, AID463079, AID485270, AID492963, AID492964, AID492965, AID493232, AID504699, AID504701]. The settings on record: Cricetulus griseus.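 Also: potency for inhibition of ATP-stimulated IP1 production as antagonists.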

A further experiment has as its target Activin receptor type-1 (Homo sapiens, UniProt Q04771). Kind of experiment: Navigating the Kinome. Panel member name: ACVR1.
Another experiment concerns the target LIM domain kinase 1 (Homo sapiens, UniProt P53667). The experiment is described as follows: Navigating the Kinome. Panel member name: LIMK1.
Experiment [4] concerns the target Macrophage-stimulating protein receptor (Homo sapiens, UniProt Q04912). The experiment is described as follows: Navigating the Kinome. Panel member name: MST1R.
Experiment [5] has as its target Serine/threonine-protein kinase PAK 4 (Homo sapiens, UniProt O96013).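 Also: value obtained within a kinome profiling panel in which PAK4 was one of the panel members.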
In experiment [6] the target is Dual specificity protein kinase CLK2 (Homo sapiens, UniProt P49760).
For experiment [7], the target named is Tyrosine-protein kinase Fyn (Homo sapiens, UniProt P06241).
Experiment [8] has as its target Tyrosine-protein kinase JAK2 (Homo sapiens, UniProt O60674).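 Also: JAK2 tested as one member of a kinase panel.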
For experiment [9], the target named is Glycogen synthase kinase-3 alpha (Homo sapiens, UniProt P49840).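 Also: GSK3A result taken from a broad kinome-wide kinase panel.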
Experiment [10] addresses Cyclin-dependent kinase 5 (Homo sapiens, UniProt Q00535).
Experiment [11] has as its target Serine/threonine-protein kinase D3 (Homo sapiens, UniProt O94806).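 Also: determined within a kinase panel screen, with PRKCN as the panel member.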
Experiment [12] has as its target Mitogen-activated protein kinase 9 (Homo sapiens, UniProt P45984).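 Also: value from a kinome panel profiling assay, MAPK9 panel entry.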
The target in experiment [13] is BDNF/NT-3 growth factors receptor (Homo sapiens, UniProt Q16620).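 Also: NTRK2 measured as one member of a broad kinome-wide kinase profiling panel.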
Experiment [14] deals with Macrophage colony-stimulating factor 1 receptor (Homo sapiens, UniProt P07333).
Experiment [15] addresses Rho-associated protein kinase 1 (Homo sapiens, UniProt Q13464).
For experiment [16], the target named is Vascular endothelial growth factor receptor 1 (Homo sapiens, UniProt P17948).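 Also: measured within a kinome-wide profiling panel, FLT1 as the panel member.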
Experiment [17] addresses Casein kinase I isoform alpha (Homo sapiens, UniProt P48729).
In experiment [18] the target is Serine/threonine-protein kinase TBK1 (Homo sapiens, UniProt Q9UHD2). Kind of experiment: Navigating the Kinome. Panel member name: TBK1.
Experiment [19] concerns the target Dual specificity mitogen-activated protein kinase kinase 2 (Homo sapiens, UniProt P36507). The experiment is described as follows: Navigating the Kinome. Panel member name: MAP2K2.
Experiment [20] deals with Leucine-rich repeat serine/threonine-protein kinase 2 (Homo sapiens, UniProt Q5S007).
Experiment [21] deals with Receptor-type tyrosine-protein kinase FLT3 (Homo sapiens, UniProt P36888).
The target of experiment [22] is Leukocyte tyrosine kinase receptor (Homo sapiens, UniProt P29376). Kind of experiment: Navigating the Kinome. Panel member name: LTK.
Experiment [23] concerns the target Serine/threonine-protein kinase Chk1 (Homo sapiens, UniProt O14757).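 Also: measured as one member of a kinome-wide kinase profiling panel.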

Activity calls are given as the source filed them. A value given as a limit tells only on which side of the number the result lay.

Tyrosine-protein kinase JAK2, sequence (O60674 whole entry): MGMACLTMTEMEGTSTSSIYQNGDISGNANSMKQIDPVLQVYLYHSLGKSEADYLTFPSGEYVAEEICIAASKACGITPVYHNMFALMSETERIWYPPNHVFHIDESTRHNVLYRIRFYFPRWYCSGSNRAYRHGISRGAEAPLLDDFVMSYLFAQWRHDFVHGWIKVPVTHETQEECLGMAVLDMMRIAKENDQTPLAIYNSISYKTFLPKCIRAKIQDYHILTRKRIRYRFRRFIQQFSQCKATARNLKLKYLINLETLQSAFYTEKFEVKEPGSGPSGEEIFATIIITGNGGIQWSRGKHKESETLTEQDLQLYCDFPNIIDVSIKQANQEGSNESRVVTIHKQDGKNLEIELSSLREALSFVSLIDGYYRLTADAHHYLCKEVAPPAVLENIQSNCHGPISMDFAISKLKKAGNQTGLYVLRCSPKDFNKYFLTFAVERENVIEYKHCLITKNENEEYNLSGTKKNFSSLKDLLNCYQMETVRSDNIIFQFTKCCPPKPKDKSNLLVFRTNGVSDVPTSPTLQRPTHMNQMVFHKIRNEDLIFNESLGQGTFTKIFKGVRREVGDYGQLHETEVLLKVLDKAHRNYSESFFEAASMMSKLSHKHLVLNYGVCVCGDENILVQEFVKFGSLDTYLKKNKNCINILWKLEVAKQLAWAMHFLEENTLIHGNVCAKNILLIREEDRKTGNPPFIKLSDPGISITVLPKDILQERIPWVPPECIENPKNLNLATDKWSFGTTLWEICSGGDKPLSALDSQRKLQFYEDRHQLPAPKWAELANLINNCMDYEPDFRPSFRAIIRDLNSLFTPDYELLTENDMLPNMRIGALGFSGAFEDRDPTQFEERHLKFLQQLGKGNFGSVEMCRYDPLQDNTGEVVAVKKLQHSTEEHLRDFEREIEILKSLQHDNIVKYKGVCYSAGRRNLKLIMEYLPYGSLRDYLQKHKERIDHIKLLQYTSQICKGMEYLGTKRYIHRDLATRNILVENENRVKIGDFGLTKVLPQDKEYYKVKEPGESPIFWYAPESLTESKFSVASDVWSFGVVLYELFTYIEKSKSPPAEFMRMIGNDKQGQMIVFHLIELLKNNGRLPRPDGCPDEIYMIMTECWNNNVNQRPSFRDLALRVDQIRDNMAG
Rho-associated protein kinase 1, sequence (Q13464 whole entry): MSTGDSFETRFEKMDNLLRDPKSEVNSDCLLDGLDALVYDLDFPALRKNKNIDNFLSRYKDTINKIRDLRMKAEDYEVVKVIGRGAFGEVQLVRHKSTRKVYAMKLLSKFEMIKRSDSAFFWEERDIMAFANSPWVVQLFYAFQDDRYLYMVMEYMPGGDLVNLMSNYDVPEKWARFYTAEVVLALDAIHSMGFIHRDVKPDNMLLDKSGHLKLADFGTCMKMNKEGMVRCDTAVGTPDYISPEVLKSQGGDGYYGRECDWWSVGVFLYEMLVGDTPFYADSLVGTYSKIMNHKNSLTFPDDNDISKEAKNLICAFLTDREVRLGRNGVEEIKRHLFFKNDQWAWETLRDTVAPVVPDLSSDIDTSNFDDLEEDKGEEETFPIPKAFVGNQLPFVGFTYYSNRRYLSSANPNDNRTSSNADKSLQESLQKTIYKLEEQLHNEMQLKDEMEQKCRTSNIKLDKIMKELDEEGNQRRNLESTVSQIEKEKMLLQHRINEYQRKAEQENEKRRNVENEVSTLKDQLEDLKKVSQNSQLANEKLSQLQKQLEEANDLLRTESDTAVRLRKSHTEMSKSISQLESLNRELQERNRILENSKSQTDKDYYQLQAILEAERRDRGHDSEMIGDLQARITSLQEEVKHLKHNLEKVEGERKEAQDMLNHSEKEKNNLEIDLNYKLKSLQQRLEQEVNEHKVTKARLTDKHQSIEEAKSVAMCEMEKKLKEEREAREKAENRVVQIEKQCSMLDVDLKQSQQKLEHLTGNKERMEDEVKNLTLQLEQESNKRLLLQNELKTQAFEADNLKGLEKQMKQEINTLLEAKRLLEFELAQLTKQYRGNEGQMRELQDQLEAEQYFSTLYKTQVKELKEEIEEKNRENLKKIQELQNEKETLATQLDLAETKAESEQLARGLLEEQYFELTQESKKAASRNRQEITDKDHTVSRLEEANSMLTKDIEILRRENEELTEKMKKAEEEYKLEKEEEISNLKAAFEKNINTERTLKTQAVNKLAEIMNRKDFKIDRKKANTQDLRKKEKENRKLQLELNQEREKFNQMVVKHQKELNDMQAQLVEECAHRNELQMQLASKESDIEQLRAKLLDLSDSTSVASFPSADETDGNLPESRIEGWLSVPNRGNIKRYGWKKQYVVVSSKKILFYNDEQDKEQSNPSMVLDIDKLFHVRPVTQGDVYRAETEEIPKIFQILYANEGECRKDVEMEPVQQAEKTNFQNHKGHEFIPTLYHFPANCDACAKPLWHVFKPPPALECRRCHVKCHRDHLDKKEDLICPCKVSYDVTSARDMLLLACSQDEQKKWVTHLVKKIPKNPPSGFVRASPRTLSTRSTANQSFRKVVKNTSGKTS
Dual specificity protein kinase CLK2, sequence (P49760 whole entry): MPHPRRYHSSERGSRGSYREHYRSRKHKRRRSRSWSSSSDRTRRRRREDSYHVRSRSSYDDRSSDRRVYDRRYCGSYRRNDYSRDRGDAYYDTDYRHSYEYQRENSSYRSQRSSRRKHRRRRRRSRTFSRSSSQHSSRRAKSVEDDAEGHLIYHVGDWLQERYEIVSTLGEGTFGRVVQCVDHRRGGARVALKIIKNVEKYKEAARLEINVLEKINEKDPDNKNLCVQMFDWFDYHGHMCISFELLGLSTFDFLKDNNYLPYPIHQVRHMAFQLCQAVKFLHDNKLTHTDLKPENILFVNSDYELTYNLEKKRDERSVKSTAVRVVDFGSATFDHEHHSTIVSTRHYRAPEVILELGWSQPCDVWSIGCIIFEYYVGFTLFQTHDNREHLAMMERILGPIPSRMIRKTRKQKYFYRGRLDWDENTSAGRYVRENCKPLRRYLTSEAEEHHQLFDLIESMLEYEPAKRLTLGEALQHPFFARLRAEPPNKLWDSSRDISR
Dual specificity mitogen-activated protein kinase kinase 2, sequence (P36507 whole entry): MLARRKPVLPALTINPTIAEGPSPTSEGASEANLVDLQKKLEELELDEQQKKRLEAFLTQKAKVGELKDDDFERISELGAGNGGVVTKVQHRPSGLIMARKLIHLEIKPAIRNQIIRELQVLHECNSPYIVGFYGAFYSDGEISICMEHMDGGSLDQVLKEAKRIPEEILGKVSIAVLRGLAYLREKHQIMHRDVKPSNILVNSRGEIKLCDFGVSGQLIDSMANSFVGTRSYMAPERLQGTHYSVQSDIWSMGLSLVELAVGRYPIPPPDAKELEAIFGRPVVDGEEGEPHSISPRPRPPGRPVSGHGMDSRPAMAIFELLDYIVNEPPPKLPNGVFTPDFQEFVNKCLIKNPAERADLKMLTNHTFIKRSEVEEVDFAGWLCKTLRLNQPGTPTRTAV
Leukocyte tyrosine kinase receptor, sequence (P29376 whole entry): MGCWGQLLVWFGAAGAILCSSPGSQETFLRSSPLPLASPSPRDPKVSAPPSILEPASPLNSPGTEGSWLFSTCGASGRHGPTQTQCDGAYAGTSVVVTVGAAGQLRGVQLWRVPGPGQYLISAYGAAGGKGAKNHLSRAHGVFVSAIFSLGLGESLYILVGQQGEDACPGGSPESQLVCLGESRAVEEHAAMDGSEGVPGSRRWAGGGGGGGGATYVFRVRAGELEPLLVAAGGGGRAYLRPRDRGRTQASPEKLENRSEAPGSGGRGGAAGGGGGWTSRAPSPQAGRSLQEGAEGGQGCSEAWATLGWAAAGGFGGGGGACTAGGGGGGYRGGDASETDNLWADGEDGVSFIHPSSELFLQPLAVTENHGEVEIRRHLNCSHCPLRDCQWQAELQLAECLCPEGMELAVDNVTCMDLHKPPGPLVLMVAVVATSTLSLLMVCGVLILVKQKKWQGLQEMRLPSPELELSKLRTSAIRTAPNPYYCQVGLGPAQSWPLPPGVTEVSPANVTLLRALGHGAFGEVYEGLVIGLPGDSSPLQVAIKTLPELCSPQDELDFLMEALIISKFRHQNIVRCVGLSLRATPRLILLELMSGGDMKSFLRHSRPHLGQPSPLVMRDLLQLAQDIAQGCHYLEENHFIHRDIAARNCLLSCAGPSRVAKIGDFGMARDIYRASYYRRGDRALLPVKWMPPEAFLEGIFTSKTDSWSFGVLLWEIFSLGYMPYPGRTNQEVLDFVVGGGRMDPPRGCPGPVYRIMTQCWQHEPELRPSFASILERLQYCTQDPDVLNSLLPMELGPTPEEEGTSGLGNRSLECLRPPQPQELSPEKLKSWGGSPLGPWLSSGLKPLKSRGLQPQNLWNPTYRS
LIM domain kinase 1, sequence (P53667 whole entry, the tested form may be a part): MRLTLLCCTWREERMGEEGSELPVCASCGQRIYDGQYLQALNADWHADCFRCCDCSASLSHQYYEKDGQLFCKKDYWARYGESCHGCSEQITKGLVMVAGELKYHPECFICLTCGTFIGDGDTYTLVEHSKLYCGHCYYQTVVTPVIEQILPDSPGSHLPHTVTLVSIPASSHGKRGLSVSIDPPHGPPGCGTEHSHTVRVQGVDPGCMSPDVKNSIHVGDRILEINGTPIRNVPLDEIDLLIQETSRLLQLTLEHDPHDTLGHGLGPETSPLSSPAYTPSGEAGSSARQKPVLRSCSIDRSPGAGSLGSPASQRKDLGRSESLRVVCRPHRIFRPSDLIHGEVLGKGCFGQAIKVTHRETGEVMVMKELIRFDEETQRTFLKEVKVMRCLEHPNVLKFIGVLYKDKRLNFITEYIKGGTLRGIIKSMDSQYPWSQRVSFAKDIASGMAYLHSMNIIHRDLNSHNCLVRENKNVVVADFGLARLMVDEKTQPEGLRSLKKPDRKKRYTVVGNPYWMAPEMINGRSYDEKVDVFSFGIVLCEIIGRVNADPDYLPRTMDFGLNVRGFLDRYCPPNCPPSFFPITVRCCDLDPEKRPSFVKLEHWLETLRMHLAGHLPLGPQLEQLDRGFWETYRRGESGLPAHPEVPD

For the compound `Cc1ccnc2ccc(-c3nc4ccccc4o3)cc12`, the IC50 – broadly, the concentration needed to halve the response being measured – on Caspase-3 is 5.31 µM (active); in [1], 4.26 µM (active); in experiment [2], 1.1 µM (active); in experiment [3] it was > 49.8 µM (inactive); in the experiment on CHO-K1 it was > 66.2 µM (inactive).

For the compound `O=C(NCCc1cccs1)N1CC=C(c2c[nH]c3ncccc23)CC1`, the Ki (usually a measure of affinity in units of concentration, obtained from inhibition or displacement) was 1.26 µM (active) on Activin receptor type-1; > 3.16 µM (inactive) on LIM domain kinase 1; 2.51 µM (active) in experiment [4]; > 5.01 µM (inactive) in [5]; 0.501 µM (active) in [6]; > 6.31 µM (inactive) in experiment [7]. Also, the Ki in [8] was > 2.51 µM (inactive); in experiment [9], > 3.98 µM (inactive); in experiment [10], 0.158 µM (active); in experiment [11], > 3.98 µM (inactive); in experiment [12], > 3.98 µM (inactive); in [13], > 3.98 µM (inactive). The Ki in experiment [14] is > 2.51 µM (inactive); in [15], 0.0631 µM (active); in experiment [16], > 3.98 µM (inactive); in experiment [17], 1.58 µM (active); in [18] it was > 3.16 µM (inactive); in experiment [19] it was 3.16 µM (active). The Ki in [20] is 0.631 µM (active); in experiment [21] it was > 3.16 µM (inactive); in experiment [22], > 2.51 µM (inactive); in experiment [23] it was 2 µM (active).

The values are drawn from ChEMBL document CHEMBL1201862, “PubChem BioAssay data set” (2004).
